Here are results for ten molecules from patent publication US7226923B2, “Phthalazinone derivatives” (Hoffman-La Roche Inc., priority 2004, dated 2007).

One test concerns the target T1, Aurora A (Homo sapiens, UniProt O14965).
T1 construct: C-terminally Histidine4 (His4)-tagged Aurora A full-length protein
T1 sequence (O14965 1-403): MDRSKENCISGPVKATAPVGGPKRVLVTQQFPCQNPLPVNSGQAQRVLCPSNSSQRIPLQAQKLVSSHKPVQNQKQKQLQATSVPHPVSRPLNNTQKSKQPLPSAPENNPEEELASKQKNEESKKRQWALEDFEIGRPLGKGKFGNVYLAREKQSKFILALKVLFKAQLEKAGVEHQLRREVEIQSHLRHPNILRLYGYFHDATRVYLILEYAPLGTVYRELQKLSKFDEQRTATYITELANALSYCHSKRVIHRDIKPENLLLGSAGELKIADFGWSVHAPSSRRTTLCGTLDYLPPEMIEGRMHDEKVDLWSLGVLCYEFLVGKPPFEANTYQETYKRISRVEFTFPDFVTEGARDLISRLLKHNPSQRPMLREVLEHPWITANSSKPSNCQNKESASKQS
Briefly: IC50 determination for inhibitors of Aurora A (96 MTP-ELISA). The format is biochemical. Conditions: His4-tagged full-length Aurora A 250 ng/ml, PKB-GSK2 200 nM, ATP 4 μM, 90 min at room temperature, read-out: IC50 Aurora A kinase inhibition. For orientation: ELISA stands for enzyme-linked immunosorbent assay.

A further test relates to HCT 116 cells. Briefly: CellTiter-Glo assay in HCT 116 cells. Format: cell-based, human. The settings on record: Homo sapiens, HCT-116, 120 h, 5 days incubation, 30 μM to 0.0015 μM. A digest of the protocol: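 Cells seeded at 1000/well in RPMI 1640 with 5% FCS, grown 24 h at 37 °C, then treated with 10 concentrations from 30 μM to 0.0015 μM (1:3 dilutions). After 5 days viability was read as ATP-based luminescence (CellTiter-Glo) following 30 min room-temperature equilibration and lysis.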
For orientation: In ATP-based viability assays light output follows the ATP content of the culture.

As usually defined, the IC50 is the midpoint of a concentration-inhibition curve. `Cc1cc(Nc2nn(C(C)C)c(=O)c3cc(CO)ccc23)n[nH]1` [Example M-9, 7-Hydroxymethyl-2-isopropyl-4-(5-methyl-1H-pyrazol-3-ylamino)-2H-phthalazin-1-one]: the figures for the IC50 at Aurora A and in the test on HCT 116 cells were 1 to 100 nM and 100 to 10000 nM, respectively.

As for `Cc1cc(Nc2nn(C(C)C)c(=O)c3cc(N4CCOCC4)ccc23)n[nH]1` [Example F-1, 2-Isopropyl-4-(5-methyl-1H-pyrazol-3-ylamino)-7-morpholino-2H-phthalazin-1-one], the half-maximal inhibitory concentration (IC50) is 1 to 100 nM at Aurora A and 100 to 10000 nM in the test with HCT 116 cells.

As for `Cc1cc(Nc2nn(CC(=O)c3ccccc3)c(=O)c3ccccc23)n[nH]1` [Example E-9, 4-(5-Methyl-1H-pyrazol-3-ylamino)-2-(2-oxo-2-phenyl-ethyl)-2H-phthalazin-1-one], the IC50 on Aurora A was in the range of 1 to 100 nM; with HCT 116 cells it was 100 to 10000 nM.

In the case of `CC(=O)N1CCN(C(=O)c2ccc3c(Nc4cc(C)[nH]n4)nn(C(C)C)c(=O)c3c2)CC1` [Example M-7, 7-(4-Acetyl-piperazine-1-carbonyl)-2-isopropyl-4-(5-methyl-1H-pyrazol-3-ylamino)-2H-phthalazin-1-one], the 50% inhibitory concentration (IC50) at Aurora A lay within 1 to 100 nM; in the test with HCT 116 cells it was 10000 to 100000 nM.

Take `CCN(CC)C(=O)c1ccc2c(Nc3cc(C)[nH]n3)nn(C(C)C)c(=O)c2c1` [Example M-3, 3-Isopropyl-1-(5-methyl-1H-pyrazol-3-ylamino)-4-oxo-3,4-dihydro-phthalazine-6-carboxylic acid diethylamide]: the IC50 at Aurora A was 1 to 100 nM; in the test with HCT 116 cells it was 100 to 10000 nM.

For the molecule `CCC(C)c1ccc(-n2nc(Nc3cc(C)n[nH]3)c3ccccc3c2=O)cc1` (centres unmarked) [Example P-2, 2-(4-sec-Butyl-phenyl)-4-(5-methyl-2H-pyrazol-3-ylamino)-2H-phthalazin-1-one], the half-maximal inhibitory concentration (IC50) on Aurora A lay within 1 to 100 nM; in the test with HCT 116 cells, 10000 to 100000 nM.

Turning to `Cc1cc(Nc2nn(-c3ccccc3Cl)c(=O)c3ccccc23)n[nH]1` [Example R-4, 2-(2-Chloro-phenyl)-4-(5-methyl-1H-pyrazol-3-ylamino)-2H-phthalazin-1-one], the half-maximal inhibitory concentration (IC50) fell in the range of 1 to 100 nM on Aurora A and 100 to 10000 nM in the test on HCT 116 cells.

Turning to `Cc1cc(Nc2nn(-c3ccc(OC(F)(F)F)cc3)c(=O)c3ccccc23)n[nH]1` [Example W-2, 4-(5-Methyl-1H-pyrazol-3-ylamino)-2-(4-trifluoromethoxy-phenyl)-2H-phthalazin-1-one], the concentration for half-maximal inhibition (IC50) is 1 to 100 nM on Aurora A and 100 to 10000 nM in the test on HCT 116 cells.

Take `Cc1cc(Nc2nn(-c3ccc(NC(=O)C(C)(C)C)cc3)c(=O)c3ccccc23)n[nH]1` [Example T-3, 2,2-Dimethyl-N-{4-[4-(5-methyl-1H-pyrazol-3-ylamino)-1-oxo-1H-phthalazin-2-yl]-phenyl}-propionamide]: the IC50 at Aurora A lay in the range of 100 to 1000 nM; in the test with HCT 116 cells, 100 to 10000 nM.

As to `Cc1cc(Nc2nn(-c3ccncc3)c(=O)c3ccccc23)n[nH]1` [Example X-1, 4-(5-Methyl-1H-pyrazol-3-ylamino)-2-pyridin-4-yl-2H-phthalazin-1-one], the half-inhibitory concentration (IC50) on Aurora A was in the range of 100 to 1000 nM; with HCT 116 cells, 100 to 10000 nM.
